According to patent US20240101570A1 (AMGEN INC., priority 2020, published 2024):

Tests used:
HCT116 MTAP null cells = test: HCT116 MTAP null cell proliferation / viability (CellTiter-Glo, 6 days); format: cell-based; details: HCT116-MTAP null, 144 h, HCT116 MTAP null cells, 6 days, CellTiter-Glo; read-out: HCT-116 MTAP null IC50
Summary of the method: (§1)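 CellTiter-Glo luminescence, 6-day exposure, RPMI 1640 + 10% FBS. Dosing: 1:3 series (8-9 pts, top 1 or 10 μM) or 1:2 series (22 pts, top 10 or 50 μM), DMSO control. IC50 = 50% of control via curve fit.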

HCT116 WT cells = test: HCT116 WT cell proliferation / viability (CellTiter-Glo, 6 days); format: cell-based; details: Homo sapiens, HCT-116, 144 h, HCT116 WT cells, 6 days, CellTiter-Glo; read-out: HCT-116 WT IC50
Summary of the method: as §1

Row | SMILES | IC50 (HCT116 MTAP null cells) | IC50 (HCT116 WT cells)
1 | Nc1nc2cnc(C(=O)N(Cc3ccc(C(F)(F)F)cn3)CC(F)(F)F)cc2c2c1COC2 [Example 486, 4-amino-N-(2,2,2-trifluoroethyl)-N-((5-(trifluoromethyl)-2-pyridinyl)methyl)-1,3-dihydrofuro[3,4-c][1,7]naphthyridine-8-carboxamide] | 445 nM | 17500 nM
2 | C[C@H]1OCc2c1c(N)nc1ccc(C(=O)N(Cc3ccc(C(F)(F)F)cn3)C3CCOCC3)cc21 [Example 489, (3R)-4-amino-3-methyl-N-(tetrahydro-2H-pyran-4-yl)-N-((5-(trifluoromethyl)-2-pyridinyl)methyl)-1,3-dihydrofuro[3,4-c]quinoline-8-carboxamide] | 276 nM | 5210 nM
3 | Nc1nc2cc(Cl)c(C(=O)N(Cc3ccc(C(F)(F)F)nn3)C3CC3)cc2c2c1COC2 [Example 490, 4-amino-7-chloro-N-cyclopropyl-N-((6-(trifluoromethyl)-3-pyridazinyl)methyl)-1,3-dihydrofuro[3,4-c]quinoline-8-carboxamide] | 87 nM | 3480 nM
4 | Cn1cc(N(Cc2ccc(C(F)(F)F)cn2)C(=O)c2cc3c4c(c(N)nc3cn2)CCC4)cn1 [Example 492, 6-amino-N-(1-methyl-1H-pyrazol-4-yl)-N-((5-(trifluoromethyl)-2-pyridinyl)methyl)-8,9-dihydro-7H-cyclopenta[c][1,7]naphthyridine-2-carboxamide] | 48 nM | 622 nM
5 | Cn1cc(N(Cc2ccc(C(F)F)cn2)C(=O)c2cc3c4c(c(N)nc3cn2)CCC4)cn1 [Example 493, 6-amino-N-((5-(difluoromethyl)-2-pyridinyl)methyl)-N-(1-methyl-1H-pyrazol-4-yl)-8,9-dihydro-7H-cyclopenta[c][1,7]naphthyridine-2-carboxamide] | 124 nM | 1160 nM
6 | Cn1ncc2c3cc(C(=O)N(Cc4ccc(C(F)(F)F)cn4)C4(C)CC4)ccc3nc(N)c21 [Example 494, 4-amino-3-methyl-N-(1-methylcyclopropyl)-N-((5-(trifluoromethyl)-2-pyridinyl)methyl)-3H-pyrazolo[3,4-c]quinoline-8-carboxamide] | 282 nM | 9070 nM
7 | Cn1cc(N(Cc2ccc(C(F)(F)F)cn2)C(=O)c2ccc3nc(N)c4c(cnn4C)c3c2)cn1 [Example 495, 4-amino-3-methyl-N-(1-methyl-1H-pyrazol-4-yl)-N-((5-(trifluoromethyl)-2-pyridinyl)methyl)-3H-pyrazolo[3,4-c]quinoline-8-carboxamide] | 79 nM | 6360 nM
8 | CC(C)N(Cc1cnc(C(F)(F)F)cn1)C(=O)c1cc2c3c(c(N)nc2cc1F)COC3 [Example 496, 4-amino-7-fluoro-N-(2-propanyl)-N-((5-(trifluoromethyl)-2-pyrazinyl)methyl)-1,3-dihydrofuro[3,4-c]quinoline-8-carboxamide] | 1270 nM | 2240 nM
9 | CCN(Cc1cnc(C(F)(F)F)cn1)C(=O)c1cc2c3c(c(N)nc2cc1F)COC3 [Example 497, 4-amino-N-ethyl-7-fluoro-N-((5-(trifluoromethyl)-2-pyrazinyl)methyl)-1,3-dihydrofuro[3,4-c]quinoline-8-carboxamide] | 250 nM | 3520 nM
10 | CCN(Cc1cnc(C(F)(F)F)cn1)C(=O)c1cc2c3c(c(N)nc2cc1Cl)COC3 [Example 498, 4-amino-7-chloro-N-ethyl-N-((5-(trifluoromethyl)-2-pyrazinyl)methyl)-1,3-dihydrofuro[3,4-c]quinoline-8-carboxamide] | 266 nM | 12700 nM
11 | CC(C)N(Cc1cnc(C(F)(F)F)cn1)C(=O)c1cc2c3c(c(N)nc2cc1Cl)COC3 [Example 499, 4-amino-7-chloro-N-(2-propanyl)-N-((5-(trifluoromethyl)-2-pyrazinyl)methyl)-1,3-dihydrofuro[3,4-c]quinoline-8-carboxamide] | 164 nM | 4140 nM
12 | CCN(Cc1cnc(C(F)(F)F)cn1)C(=O)c1ccc2nc(N)c3c(c2c1)CO[C@@H]3C [Example 500, (3R)-4-amino-N-ethyl-3-methyl-N-((5-(trifluoromethyl)-2-pyrazinyl)methyl)-1,3-dihydrofuro[3,4-c]quinoline-8-carboxamide] | 595 nM | 32500 nM
13 | Nc1nc2cc(F)c(C(=O)N(Cc3ccc(C(F)(F)F)nn3)C3CCC3)cc2c2c1COC2 [Example 501, 4-amino-N-cyclobutyl-7-fluoro-N-((6-(trifluoromethyl)-3-pyridazinyl)methyl)-1,3-dihydrofuro[3,4-c]quinoline-8-carboxamide] | 46 nM | 1200 nM
14 | COc1cc2nc(N)c3c(c2cc1C(=O)N(C)Cc1ccc(C(F)(F)F)cn1)COC3 [Example 502, 4-amino-7-methoxy-N-methyl-N-((5-(trifluoromethyl)-2-pyridinyl)methyl)-1,3-dihydrofuro[3,4-c]quinoline-8-carboxamide] | 3930 nM | 47300 nM
15 | Cc1cc2nc(N)c3c(c2cc1C(=O)N(C)Cc1ccc(C(F)(F)F)cn1)COC3 [Example 503, 4-amino-N,7-dimethyl-N-((5-(trifluoromethyl)-2-pyridinyl)methyl)-1,3-dihydrofuro[3,4-c]quinoline-8-carboxamide] | 56 nM | 2000 nM
16 | Cn1ncc2c3cc(C(=O)N(Cc4ccc(C(F)(F)F)nn4)C4CCC4)c(F)cc3nc(N)c21 [Example 504, 4-amino-N-cyclobutyl-7-fluoro-3-methyl-N-((6-(trifluoromethyl)-3-pyridazinyl)methyl)-3H-pyrazolo[3,4-c]quinoline-8-carboxamide] | 56 nM | 1850 nM
17 | Nc1nc2cc(Cl)c(C(=O)N(Cc3ccc(C(F)(F)F)nn3)C3CCC3)cc2c2c1COC2 [Example 505, 4-amino-7-chloro-N-cyclobutyl-N-((6-(trifluoromethyl)-3-pyridazinyl)methyl)-1,3-dihydrofuro[3,4-c]quinoline-8-carboxamide] | 22 nM | 662 nM
18 | Cn1cc(N(Cc2ccc(C(F)(F)F)cn2)C(=O)c2cc3c(cc2F)nc(N)c2c3cnn2C)cn1 [Example 506, 4-amino-7-fluoro-3-methyl-N-(1-methyl-1H-pyrazol-4-yl)-N-((5-(trifluoromethyl)-2-pyridinyl)methyl)-3H-pyrazolo[3,4-c]quinoline-8-carboxamide] | 9 nM | 369 nM
19 | Cn1cc(N(Cc2ccc(C(F)(F)F)cn2)C(=O)c2cc3c(cn2)nc(N)c2cnn(C)c23)cn1 [Example 507, 4-amino-1-methyl-N-(1-methyl-1H-pyrazol-4-yl)-N-((5-(trifluoromethyl)-2-pyridinyl)methyl)-1H-pyrazolo[4,3-c][1,7]naphthyridine-8-carboxamide] | 25 nM | 373 nM
20 | C[C@H](c1ccc(C(F)(F)F)cn1)N(C(=O)c1cc2c(cc1F)nc(N)c1c2cnn1C)C1CC1 [Example 508, 4-amino-N-cyclopropyl-7-fluoro-3-methyl-N-((1R)-1-(5-(trifluoromethyl)-2-pyridinyl)ethyl)-3H-pyrazolo[3,4-c]quinoline-8-carboxamide] | 60 nM | 2840 nM
21 | Nc1nc2cc(F)c(C(=O)N(Cc3ccc(OC(F)F)nn3)C3CCC3)cc2c2c1COC2 [Example 509, 4-amino-N-cyclobutyl-N-((6-(difluoromethoxy)-3-pyridazinyl)methyl)-7-fluoro-1,3-dihydrofuro[3,4-c]quinoline-8-carboxamide] | 40 nM | 878 nM
22 | CN(Cc1ccc(S(F)(F)(F)(F)F)cc1)C(=O)c1ccc2nc(N)c3c(c2c1)COC3 [Example 510, 4-amino-N-methyl-N-(4-(pentafluoro-lambda~6~- sulfanyl)benzyl)-1,3-dihydrofuro[3,4-c]quinoline-8-carboxamide] | 65 nM | 2660 nM
23 | CN(Cc1ccc(S(F)(F)(F)(F)F)cc1)C(=O)c1cc2c3c(c(N)nc2cn1)COC3 [Example 511, 4-amino-N-methyl-N-(4-(pentafluoro-lambda~6~- sulfanyl)benzyl)-1,3-dihydrofuro[3,4-c][1,7]naphthyridine-8-carboxamide] | 122 nM | 4920 nM
24 | CN(Cc1ccc(S(F)(F)(F)(F)F)cc1)C(=O)c1cc2c3c(c(N)nc2cc1F)COC3 [Example 512, 4-amino-7-fluoro-N-methyl-N-(4-(pentafluoro-lambda~6~- sulfanyl)benzyl)-1,3-dihydrofuro[3,4-c]quinoline-8-carboxamide] | 38 nM | 1380 nM
25 | CN(Cc1ccc(S(F)(F)(F)(F)F)cc1)C(=O)c1cc2c3c(c(N)nc2cc1Cl)COC3 [Example 513, 4-amino-7-chloro-N-methyl-N-(4-(pentafluoro-lambda~6~- sulfanyl)benzyl)-1,3-dihydrofuro[3,4-c]quinoline-8-carboxamide] | 19 nM | 848 nM
26 | C[C@H]1OCc2c1c(N)nc1ccc(C(=O)N(C)Cc3ccc(S(F)(F)(F)(F)F)cc3)cc21 [Example 514, (3R)-4-amino-N,3-dimethyl-N-(4-(pentafluoro-lambda~6~- sulfanyl)benzyl)-1,3-dihydrofuro[3,4-c]quinoline-8-carboxamide] | 71 nM | 3250 nM
27 | CN(Cc1ccc(S(F)(F)(F)(F)F)cc1)C(=O)c1cc2c(cc1F)nc(N)c1c2cnn1C [Example 515, 4-amino-7-fluoro-N,3-dimethyl-N-(4-(pentafluoro-lambda~6~- sulfanyl)benzyl)-3H-pyrazolo[3,4-c]quinoline-8-carboxamide] | 80 nM | 3350 nM
28 | Cc1cc2nc(N)c3cnn(C)c3c2cc1C(=O)N(C)Cc1ccc(F)cn1 [Example 516, 4-amino-N-((5-fluoro-2-pyridinyl)methyl)-N,1,7-trimethyl-1H-pyrazolo[4,3-c]quinoline-8-carboxamide] | 167 nM | 9320 nM
